Data from patent publication US10882852B1, “3-vinylquinolines as cancer cells inhibitors” (King Abdulaziz University, priority 2020, dated 2021).
Several values for one entry are separate records, joined by “and”; a condition that tells them apart may be missing. Equal entries are not always repeated. Where two headings read alike, the source gives them in different places.

Experiments:
bovine brain tubulin = assay: Tubulin polymerization assay; format: biochemical; conditions: for IC50: inhibition of tubulin polymerization, tubulin at 10 μM, read-out: Tubulin assembly IC50 ± SD; for fold less active than CA-4 in tubulin assembly: versus CA-4
Method: The assembly of purified bovine tubulin was monitored using a kit, BK006, purchased from Cytoskeleton Inc., (Denver, Colo., USA). The assay was carried out in accordance with the manufacturer's instructions using the standard assay conditions. […] Light is scattered proportionally to the concentration of polymerized microtubules in the assay. Therefore, tubulin assembly was monitored turbidimetrically at 340 nm in a Spectramax 340 PC spectrophotometer (Molecular Devices, Sunnyvale, Calif., USA). The concentration that inhibits tubulin polymerization by 50% (IC50) was determined using area under the curve (AUC). The AUC of the untreated controls were considered as 100% polymerization. The IC50 value for each compound was computed using GraphPad Prism Software.

HL-60 leukemia cells = assay: MTT cell viability assay, HL-60; format: cell-based, human; conditions: Homo sapiens
Method: (§1) All the human tumour cell lines MCF-7, HCT-116, HL-60 and HeLa were cultured in Dulbecco's Modified Eagle's Medium (DMEM) with 10% fetal bovine serum, 2 mM L-glutamine and 100 µg/mL penicillin/streptomycin. Cells were maintained at 37° C. in 5% CO2 in a humidified incubator. All cells were sub-cultured 3 times/week by trypsinization using TrypLE Express (1×).
(§2) The quinoline compounds were evaluated for antiproliferative effect using the MTT viability assay of four cancer cell lines (MCF-7, HCT-116, HL-60 and HeLa) and normal breast cells MCF-10A to calculate the relative IC50 values for each compound. Cells were seeded in triplicate in 96-well plates at a density of 10×10^3 cells/ml in a total volume of 200 μl per well. 0.1% of DMSO was used as a vehicle control. After this time, they were treated with 2 μl test compound which had been pre-prepared as stock solutions in ethanol to furnish the concentration range of study, 1 nM to 50 μM, and re-incubated for a further 72 h. The culture medium was then removed, and the cells washed with 100 μL phosphate buffered saline (PBS) and 50 μL MTT added, to reach a final concentration of 1 mg/mL MTT added. Cells were incubated for 2 h in darkness at 37° C. At this point solubilisation was begun through the addition of […] DMSO and the cells maintained at room temperature in darkness for 20 min to ensure thorough colour diffusion before reading the absorbance. Plates were incubated for 72 hours at 37° C.+5% CO2, The MTT (5 mg/mL in PBS) was added and incubated for another 4 h, the optical density was detected with a microplate reader at 570 nm. Results were expressed as percentage viability relative to vehicle control (100%). Dose response curves were plotted and IC50 values (concentration of drug resulting in 50% reduction in cell survival) were obtained using the commercial software package Prism (GraphPad Software, Inc., La Jolla, Calif., USA). All the experiments were repeated in at least three independent experiments.

[1] = test system: MCF-7 breast cancer cells; assay: MTT cell viability assay, MCF-7; format: cell-based, human; conditions: Homo sapiens, MCF7, MCF-7, MTT
Method: as §1, §2

[2] = test system: HCT-116 colon cancer cells; assay: MTT cell viability assay, HCT-116; format: cell-based, human; conditions: Homo sapiens, HCT-116, MTT
Method: as §1, §2

[3] = test system: HeLa cervical cancer cells; assay: MTT cell viability assay, HeLa; format: cell-based, human; conditions: Homo sapiens
Method: as §1, §2

[4] = test system: MCF-7, HL-60, HCT-116 and HeLa cancer cells; assay: MTT antiproliferative activity over the panel of four cancer cell lines; format: cell-based, human; conditions: for antiproliferative activity (in words): four cancer cell lines, MTT
Method: as §1, §2

[5] = HL-60, 72 h, HL-60, MTT, 72 h, mean ± spread of three experiments, read-out: IC50 value (μM) HL-60

| Compound | IC50 (bovine brain tubulin) | melting point [°C] | also measured |
| --- | --- | --- | --- |
| COc1cc(C2=NC(=Cc3cc4ccccc4nc3OC)C(=O)O2)cc(OC)c1OC [Compound 8a, 4-[(2-Methoxyquinolin-3-yl)methylene]-2-(3,4,5-trimethoxyphenyl)oxazol-5(4H)-one] | 13900 nM and 14000 nM | 215 to 217 | fold less active than CA-4 in tubulin assembly (bovine brain tubulin): 4 fold |
| COc1cc(C2=NC(=Cc3cc4cc(C)ccc4nc3OC)C(=O)O2)cc(OC)c1OC [Compound 8b, 4-[(2-Methoxy-6-methylquinolin-3-yl)methylene]-2-(3,4,5-trimethoxyphenyl)oxazol-5(4H)-one] |  | 218 to 220 |  |
| COc1cc(C2=NC(=Cc3cc4cccc(C)c4nc3OC)C(=O)O2)cc(OC)c1OC [Compound 8d, 4-[(2-Methoxy-8-methylquinolin-3-yl)methylene]-2-(3,4,5-trimethoxyphenyl)oxazol-5(4H)-one] |  | 236 to 238 |  |
| COc1ccc2nc(OC)c(/C=C3\N=C(c4cc(OC)c(OC)c(OC)c4)OC3=O)cc2c1 [Compound 8e] | 2200 nM and 2260 nM | 242 to 244 | IC50 (HL-60 leukemia cells; HL-60, HL-60, MTT, read-out: IC50 in HL-60 (unit inferred)): 0.0685 µM; IC50 ([1]; read-out: IC50 in MCF-7 (unit inferred)): 56.8 nM; IC50 ([2]; read-out: IC50 in HCT-116 (unit inferred)): 0.0318 µM; IC50 ([3]; read-out: IC50 in HeLa (unit inferred)): 10.1 nM |
| COc1ccc2cc(C=C3N=C(c4cc(OC)c(OC)c(OC)c4)OC3=O)c(OC)nc2c1 [Compound 8f, 4-[(2,7-Dimethoxyquinolin-3-yl)methylene]-2-(3,4,5-trimethoxyphenyl)oxazol-5(4H)-one] |  | 221 to 223 |  |
| COc1cc(C2=NC(=Cc3cc4ccc(OC(C)C)cc4nc3OC)C(=O)O2)cc(OC)c1OC [Compound 8g, 4-[(7-Isopropoxy-2-methoxyquinolin-3-yl)methylene]-2-(3,4,5-trimethoxyphenyl)oxazol-5(4H)-one] | 8230 nM | 227 to 229 | fold less active than CA-4 in tubulin assembly (bovine brain tubulin): 6 fold |
| COc1cc(C2=NC(=Cc3cc4ccc(OCc5ccccc5)cc4nc3OC)C(=O)O2)cc(OC)c1OC [Compound 8h, 4-[(7-(Benzyloxy)-2-methoxyquinolin-3-yl)methylene]-2-(3,4,5-trimethoxyphenyl)oxazol-5(4H)-one] |  | 247 to 249 |  |

Further lines, with some results ahead:

| IC50 (bovine brain tubulin) | melting point [°C] | Compound | also measured |
| --- | --- | --- | --- |
|  | 230 to 232 | COc1cc(C2=NC(=Cc3cc4ccccc4nc3OC)C(=O)N2)cc(OC)c1OC [Compound 9a, 5-[(2-Methoxyquinolin-3-yl)methylene]-2-(3,4,5-trimethoxyphenyl)-3,5-dihydro-4H-imidazol-4-one] |  |
|  | 223 to 225 | COc1cc(C2=NC(=Cc3cc4cc(C)ccc4nc3OC)C(=O)N2)cc(OC)c1OC [Compound 9b, 5-[(2-Methoxy-6-methylquinolin-3-yl)methylene]-2-(3,4,5-trimethoxyphenyl)-3,5-dihydro-4H-imidazol-4-one] | antiproliferative activity (in words) [4]: potent activity in submicromolar range |
| 20200 nM and 20300 nM | 236 to 238 | COc1cc(C2=NC(=Cc3cc4ccc(C)cc4nc3OC)C(=O)N2)cc(OC)c1OC [Compound 9c, 5-[(2-Methoxy-7-methylquinolin-3-yl)methylene]-2-(3,4,5-trimethoxyphenyl)-3,5-dihydro-4H-imidazol-4-one] | IC50 ([4]; Homo sapiens, panel of HL-60, MCF-7, HCT-116, HeLa, read-out: IC50 values across the four cancer cell lines): 22300 to 73300 nM; antiproliferative activity (in words) [4]: potent activity in submicromolar range; fold less active than 8c in tubulin polymerization (bovine brain tubulin; versus oxazolone derivative 8c): 16 fold |
|  | 233 to 235 | COc1cc(C2=NC(=Cc3cc4cccc(C)c4nc3OC)C(=O)N2)cc(OC)c1OC [Compound 9d, 5-[(2-Methoxy-8-methylquinolin-3-yl)methylene]-2-(3,4,5-trimethoxyphenyl)-3,5-dihydro-4H-imidazol-4-one] | antiproliferative activity (in words) [4]: potent activity in submicromolar range |
| 1400 nM and 1480 nM | 253 to 255 | COc1ccc2nc(OC)c(C=C3N=C(c4cc(OC)c(OC)c(OC)c4)NC3=O)cc2c1 [Compound 9e, 5-[(2,6-Dimethoxyquinolin-3-yl)methylene]-2-(3,4,5-trimethoxyphenyl)-3,5-dihydro-4H-imidazol-4-one] | IC50 (HL-60 leukemia cells; [5]): 0.272 ± 0.05 µM; IC50 ([1]; read-out: IC50 in MCF-7): 42.9 nM; IC50 ([2]; 72 h, read-out: IC50 value (μM) HCT-116): 0.085 ± 0.003 µM; IC50 ([3]; read-out: IC50 in HeLa): 62.3 nM |
|  | 241 to 243 | COc1ccc2cc(C=C3N=C(c4cc(OC)c(OC)c(OC)c4)NC3=O)c(OC)nc2c1 [Compound 9f, 5-[(2,7-Dimethoxyquinolin-3-yl)methylene]-2-(3,4,5-trimethoxyphenyl)-3,5-dihydro-4H-imidazol-4-one] | IC50 ([1]; read-out: IC50 in MCF-7): 92.7 nM; IC50 ([2]; read-out: IC50 in HCT-116): 0.188 µM; IC50 ([3]; read-out: IC50 in HeLa): 101 nM |
|  | 238 to 240 | COc1cc(C2=NC(=Cc3cc4ccc(OC(C)C)cc4nc3OC)C(=O)N2)cc(OC)c1OC [Compound 9g, 5-((7-Isopropoxy-2-methoxyquinolin-3-yl)methylene)-2-(3,4,5-trimethoxyphenyl)-3,5-dihydro-4H-imidazol-4-one] |  |
|  | 259 to 261 | COc1cc(C2=NC(=Cc3cc4ccc(OCc5ccccc5)cc4nc3OC)C(=O)N2)cc(OC)c1OC [Compound 9h, 5-[(7-(Benzyloxy)-2-methoxyquinolin-3-yl)methylene]-2-(3,4,5-trimethoxyphenyl)-3,5-dihydro-4H-imidazol-4-one] | IC50 (HL-60 leukemia cells; [5]): 4.93 ± 0.26 µM |
